Columns and labels:
Type in all cases: cell-based, human
[1] = system: EKVX; experiment: NCI-60 five-dose assay (non-small cell lung cancer); conditions: 48 h, SRB
[2] = system: SF-539; experiment: NCI-60 five-dose assay (CNS cancer); conditions: 48 h, SRB
[3] = system: NCI-H322M; experiment: NCI-60 five-dose assay (non-small cell lung cancer); conditions: 48 h, SRB
[4] = system: T-47D; experiment: NCI-60 five-dose assay (breast cancer); conditions: Homo sapiens, T47D, 48 h, SRB
[5] = system: HOP-62; experiment: NCI-60 one-dose screen (non-small cell lung cancer); conditions: 10 µM single dose, 48 h
Procedure: (§1) The obtained quinolinequinones were submitted to NCI, Bethesda, USA, and, as per standard protocol of NCI, all compounds were evaluated for their antiproliferative activity at single-dose assay (10 µM concentration in DMSO) on a panel of 60 cancer cell lines derived from leukemia, non-small-cell lung, colon, CNS, melanoma, ovarian, renal, prostate, and breast, as per protocol. Tested compounds were added to the microtiter culture plates followed by incubation for 48 h at 37 °C. Sulforhodamine B (SRB), a protein-binding dye, is used for endpoint determination. The percent of the growth of the treated cells was determined in comparison to the untreated control cells and the results of each tested compound were reported. Data from one-dose experiments pertain to the percentage growth at 10 μM [16, 17, 18].

[6] = system: NCI-H23; experiment: as above; conditions: 10 µM single dose, 48 h
Procedure: as §1

[7] = system: NCI-H322M; experiment: as above; conditions: 10 µM single dose, 48 h
Procedure: as §1

[8] = system: HOP-92; experiment: as above; conditions: 10 µM single dose, 48 h
Procedure: as §1

[9] = system: NCI-H226; experiment: as above; conditions: 10 µM single dose
Procedure: as §1

[10] = system: NCI-H460; experiment: as above; conditions: 10 µM single dose, 48 h
Procedure: as §1

[11] = system: NCI-H522; experiment: as above; conditions: 10 µM single dose, 48 h
Procedure: as §1

[12] = system: EKVX; experiment: as above; conditions: 10 µM single dose
Procedure: as §1

[13] = system: A549/ATCC; experiment: as above; conditions: 10 µM single dose, 48 h
Procedure: as §1

[14] = system: MALME-3M; experiment: NCI-60 five-dose assay (melanoma); conditions: 48 h, SRB
[15] = system: A498; experiment: NCI-60 five-dose assay (renal cancer); conditions: 48 h, SRB
[16] = system: SK-OV-3; experiment: NCI-60 five-dose assay (ovarian cancer); conditions: 48 h, SRB
[17] = system: SK-MEL-28; experiment: NCI-60 five-dose assay (melanoma); conditions: 48 h, SRB
[18] = system: OVCAR-5; experiment: NCI-60 five-dose assay (ovarian cancer); conditions: 48 h, SRB
[19] = system: MOLT-4; experiment: NCI-60 one-dose screen (leukemia); conditions: 10 µM single dose, 48 h
Procedure: as §1

[20] = system: CCRF-CEM; experiment: NCI-60 one-dose screen (leukemia); conditions: 10 µM single dose, 48 h
Procedure: as §1

[21] = system: HL-60(TB); experiment: NCI-60 one-dose screen (leukemia); conditions: 10 µM single dose, 48 h
Procedure: as §1

[22] = system: K-562; experiment: NCI-60 one-dose screen (leukemia); conditions: 10 µM single dose, 48 h
Procedure: as §1

[23] = system: RPMI-8226; experiment: NCI-60 one-dose screen (leukemia); conditions: 10 µM single dose, 48 h
Procedure: as §1

[24] = system: SR; experiment: NCI-60 one-dose screen (leukemia); conditions: 10 µM single dose, 48 h
Procedure: as §1

[25] = system: UO-31; experiment: NCI-60 five-dose assay (renal cancer); conditions: 48 h, SRB
[26] = system: HCT-116; experiment: NCI-60 five-dose assay (colon cancer); conditions: 48 h, SRB
[27] = system: SNB-19; experiment: NCI-60 five-dose assay (CNS cancer); conditions: 48 h, SRB
[28] = system: NCI/ADR-RES; experiment: NCI-60 five-dose assay (ovarian cancer); conditions: 48 h, SRB
[29] = system: ACHN; experiment: NCI-60 five-dose assay (renal cancer); conditions: 48 h, SRB
[30] = system: NCI-H460; experiment: NCI-60 five-dose assay (non-small cell lung cancer); conditions: 48 h, SRB
[31] = system: DU-145; experiment: NCI-60 one-dose screen (prostate cancer); conditions: 10 µM single dose, 48 h
Procedure: as §1

[32] = system: PC-3; experiment: NCI-60 one-dose screen (prostate cancer); conditions: 10 µM single dose
Procedure: as §1

[33] = system: SW-620; experiment: NCI-60 five-dose assay (colon cancer); conditions: 48 h, SRB
[34] = system: MOLT-4; experiment: NCI-60 five-dose assay (leukemia); conditions: 48 h, SRB
[35] = system: PC-3; experiment: NCI-60 five-dose assay (prostate cancer); conditions: 48 h, SRB
[36] = system: UACC-257; experiment: NCI-60 five-dose assay (melanoma); conditions: 48 h, SRB
[37] = Homo sapiens, read-out: LC50 (the source's name)

COc1ccccc1NC1=C(Cl)C(=O)c2nc(C)ccc2C1=O [AQQ1]
TGI [1]: 3.05 µM | GI50 ([1]; Homo sapiens): 1.61 µM | CC50 [1, 37]: 5.78 µM | TGI [2]: 3.13 µM | GI50 ([2]; Homo sapiens): 1.68 µM | LC50 ([2]; Homo sapiens): 5.81 µM | TGI [3]: 7.69 µM | GI50 ([3]; Homo sapiens): 2.5 µM | CC50 [3, 37]: 27.6 µM | GI50 [4]: 1.37 µM | CC50 ([4]; read-out: LC50 (the source's name)): > 100 µM | GP (growth percentage) [5]: 74.12% | GP (growth percentage) [6]: −8.37% | GP (growth percentage) [7]: 71.14% | GP (growth percentage) [8]: −83.81% | GP (growth percentage) ([9]; 48 h): 29.65% | inhibition at 10 µM ([9]; Homo sapiens): 70.3% | GP (growth percentage) [10]: 70.83% | GP (growth percentage) [11]: −48.50% | GP (growth percentage) ([12]; 48 h): 28.52% | inhibition at 10 µM ([12]; Homo sapiens): 71.5% | GP (growth percentage) [13]: 101.36% | TGI [14]: 3.19 µM | GI50 ([14]; Homo sapiens): 1.71 µM | LC50 ([14]; Homo sapiens): 5.95 µM | TGI [15]: 4.60 µM | GI50 ([15]; Homo sapiens): 1.9 µM | LC50 ([15]; Homo sapiens): 13.1 µM | TGI [16]: 27.5 µM | GI50 ([16]; Homo sapiens): 12.6 µM | LC50 (50% net cell kill) ([16]; Homo sapiens): 59.8 µM | TGI [17]: 3.34 µM | GI50 ([17]; Homo sapiens): 1.85 µM | LC50 ([17]; Homo sapiens): 6.02 µM | TGI [18]: 3.42 µM | GI50 ([18]; Homo sapiens): 1.86 µM | LC50 (lethal concentration 50%) ([18]; Homo sapiens): 6.29 µM | GP (growth percentage) [19]: −39.00% | GP (growth percentage) [20]: −4.94% | GP (growth percentage) [21]: −48.05% | GP (growth percentage) [22]: −21.12% | GP (growth percentage) [23]: −30.44% | GP (growth percentage) [24]: −27.92% | TGI [25]: 2.73 µM | GI50 ([25]; Homo sapiens): 1.42 µM | LC50 (lethal concentration 50%) ([25]; Homo sapiens): 5.26 µM | TGI [26]: 4.16 µM | GI50 ([26]; Homo sapiens): 1.53 µM | LC50 ([26]; Homo sapiens): 44.3 µM | TGI [27]: 3.72 µM | GI50 ([27]; Homo sapiens): 1.81 µM | CC50 [27, 37]: 7.64 µM | TGI [28]: 5.16 µM | GI50 ([28]; Homo sapiens): 2.03 µM | CC50 [28, 37]: 34.6 µM | TGI [29]: 2.80 µM | GI50 ([29]; Homo sapiens): 1.47 µM | LC50 ([29]; Homo sapiens): 5.34 µM | TGI [30]: 12 µM | GI50 ([30]; Homo sapiens): 3.22 µM | CC50 [30, 37]: 52.7 µM | GP (growth percentage) [31]: −57.26% | GP (growth percentage) ([32]; 48 h): 27.39% | inhibition at 10 µM ([32]; Homo sapiens): 72.6% | TGI [33]: 3.73 µM | GI50 ([33]; Homo sapiens): 1.84 µM | LC50 ([33]; Homo sapiens): 7.56 µM | TGI [34]: 8.60 µM | GI50 ([34]; Homo sapiens): 2.27 µM | LC50 ([34]; Homo sapiens): > 100 µM | TGI [35]: 2.58 µM | GI50 ([35]; Homo sapiens): 1.21 µM | CC50 [35, 37]: 5.49 µM | TGI [36]: 3.09 µM | GI50 ([36]; Homo sapiens): 1.57 µM | LC50 (NCI-60 lethal concentration, 50% cell kill) ([36]; Homo sapiens): 6.11 µM

— paper PMC11200585, “Prospects for Prostate Cancer Chemotherapy: Cytotoxic Evaluation and Mechanistic Insights of Quinolinequinones with ADME/PK Profile” (Biomedicines, 2024)
